Drawing on PubChem BioAssay AID179 (DTP/NCI, 2004), this text covers EC50, IC50 and outcome for 71 compounds.

“And” between values parts separate entries of the source, which are not always exact repeats. Equal values may be shown once. The source made the active and inactive calls.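 How the source made its calls: active means compounds giving half or more protection of infected cells from virus-caused growth loss, again on retest; inactive means the rest.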

This assay has as its system CEM cells HIV-1 protection, formazan growth assay. Nature of the assay: NCI AIDS Antiviral Assay. Particulars: for IC50: measured here: growth of uninfected CEM cells. An outline of the steps:
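CEM (human) cells, HIV-1 infected vs uninfected, 5-point dosing, formazan growth read-out. Retest threshold 50% protection.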

In general, EC50 refers to the concentration needed to bring the measured effect to its halfway point. Broadly, the IC50 is the concentration that gives 50% inhibition. Low values mean greater potency, high ones weaker potency.

As to `CN(C)CC1CCCCCC(CN(C)C)C1=O` (centres undefined), the EC50 is more than 20 µM and the IC50 worked out at 1.07 µM.
For `Cn1c(CC(O)(C(F)(F)F)C(F)(F)F)c(C(O)(C(F)(F)F)C(F)(F)F)c2ccccc21`, in that order: more than 200 µM and 3.39 µM.
As for `CC[N+](CC)=c1cc2oc3cc(N(C)C)ccc3nc-2cc1C`, the 50% effective concentration (EC50) was more than 200 µM and the half-inhibitory concentration (IC50) came to 16.2 µM.
As for `O=C1[C@@H]2C(c3ccncc3)=NO[C@@H]2C(=O)N1c1ccc(Cc2ccc(N3C(=O)[C@H]4C(c5ccncc5)=NO[C@H]4C3=O)cc2)cc1`, the EC50 was more than 12 µM and the IC50 is more than 12 µM.
With `CN(C)C(=S)NC(=S)Nc1ccc2ccccc2c1`, the outcome was inactive.
As to `COC(=O)C1=CN=C(C(=O)OC)NN1`, the EC50 is more than 1260 µM and the half-maximal inhibitory concentration (IC50) was determined as 537 µM.
On the same counts, the results for `O=[N+]([O-])c1ccc(Sc2c3ccccc3nc3ccccc23)cc1` are more than 4.37 µM and more than 4.37 µM.
On the same counts, the results for `COc1ccc(C(C#N)NCCCCCCNC(C#N)c2ccc(OC)cc2)cc1` (centres undefined) are more than 200 µM and more than 200 µM.
Turning to `O=[N+]([O-])c1ccccc1S(=O)(=O)N1CCCc2cc(Cl)ccc21`, the EC50 was more than 200 µM and the IC50 worked out at 16.6 µM.
With `CC(=O)Oc1c(C(C)C)cc2c(c1OC(C)=O)CC1(C)OC(=O)CC(C)(C)C1=CC2` (centres undefined), the result was inactive.
On to `CC1(C)OC(=O)CC12CCN(Cc1ccccc1)CC2`, for which the EC50 was more than 200 µM and the IC50 worked out at 195 µM.
In the case of `COc1cc(CNc2ccc(SC)cc2)cc(OC)c1OC`, the EC50 is more than 100 µM; the IC50 is 4.68 µM and 4.79 µM.
As to `O=c1[nH]c(-c2ccc(-c3nc4cc([N+](=O)[O-])ccc4c(=O)[nH]3)cc2)nc2cc([N+](=O)[O-])ccc12`, the EC50 was more than 7.94 µM and the IC50 was more than 7.94 µM.
For the compound `CCC[CH2][Ge]([CH2]CCC)([CH2]CCC)[O]C(=O)CCl`, the EC50 was more than 32.4 µM and the IC50 is more than 32.4 µM.
Take `O=C(O)CCCCCCCC(O)C(O)CCCCCCCC(=O)O` (centres undefined): the EC50 was more than 195 µM and the 50% inhibitory concentration (IC50) was more than 195 µM.
Regarding `CN(C)c1nc2n(CCO)c(-c3ccccc3)c(-c3ccccc3)nc-2c(=O)n1`, the EC50 was 30.9 µM and the half-maximal inhibitory concentration (IC50) was more than 100 µM.
As to `Cc1cc(NC[C@H](O)[C@H](O)[C@H](O)CO)c(Sc2cc(=O)[nH]c(=O)[nH]2)cc1C`, the outcome was inactive.
As for `CCOC(=O)NC(C(=O)OCC)C(F)(F)F` (centres undefined), the EC50 is more than 200 µM and the 50% inhibitory concentration (IC50) was determined as 102 µM.
On the same counts, the results for `O=S(=O)(/C=N\N=P(c1ccccc1)(c1ccccc1)c1ccccc1)c1ccccc1-c1ccccc1` are more than 200 µM and 107 µM.
On the same counts, the results for `COC(=O)C([O][Ge]([CH3])([CH3])[CH3])c1ccccc1` (centres undefined) are more than 251 µM and more than 251 µM.
On the same counts, the results for `Nc1ccc(C2SCC(=O)N2NS(=O)(=O)c2cccc(C(=O)O)c2)cc1` (centres undefined) are 36.3 µM and 132 µM.
As to `O=C(O)c1ccccc1/C=C1\Cc2ccccc2C1=O`, the EC50 was more than 200 µM and the half-inhibitory concentration (IC50) was determined as 120 µM.
In the case of `Cc1c(O)c(OC2OC(CO)C(O)C(O)C2O)cc2c1C=C[C@@H]1[C@@]2(C)C(=O)C[C@]2(C)[C@@H]([C@@](C)(O)C(O)/C=C/C(C)(C)O)[C@H](O)C[C@@]12C` (some centres undefined), the EC50 was more than 200 µM and the IC50 is more than 200 µM.
With `Nc1c2c([nH]c(=O)c1N)CCC2`, the EC50 was more than 200 µM and the IC50 was more than 200 µM.
In the case of `COC1/C=C\OC2(C)Oc3c(C)c(O)c4c(O)c(c(C=Nc5ccc6ccccc6c5)c(O)c4c3C2=O)NC(=O)/C(C)=C\C=C/C(C)C(O)C(C)C(O)C(C)C(OC(C)=O)C1C` (centres undefined), the EC50 was more than 200 µM and the IC50 was 35.5 µM.
For the compound `Cc1ccc(/C=C2\Cc3c(C)cc(C)cc3C2=O)c(C(=O)O)c1`, the EC50 is more than 200 µM and the 50% inhibitory concentration (IC50) came to 85.1 µM.
As to `COc1ccccc1C1C2=C(COC2=O)OC(C)(C)Oc2cc3c(cc21)OCO3` (centres undefined), the outcome was inactive.
With `C=C1CN(S(=O)(=O)c2ccc(C)cc2)CCCN(C(C)C)CCCN(S(=O)(=O)c2ccc(C)cc2)C1`, the EC50 is more than 200 µM and the IC50 was found to be 6.31 µM.
For the compound `COc1ccc2c(c1)OCC1=C2Oc2ccccc2C1`, the EC50 was more than 200 µM and the half-maximal inhibitory concentration (IC50) came to 26.9 µM.
On to `COc1ccccc1NC(=O)CC(=O)n1nc(C)c(N=Nc2ccccc2F)c1C`, for which the result was inactive.
As for `O=C(C(Cl)=C(N1CCCCC1)N1CCCCC1)C(Cl)Cl`, the EC50 was more than 200 µM and the IC50 was determined as 174 µM.
With `c1ccc(Nc2cc(Nc3ccccc3)cc(Nc3ccccc3)c2)cc1`, the EC50 was more than 200 µM and the IC50 came out at 26.3 µM.
On to `NC(=O)OCc1c(-c2ccccc2)nn(-c2ccccc2)c1COC(N)=O`, for which the EC50 was more than 200 µM and the 50% inhibitory concentration (IC50) is more than 200 µM.
`CC1=Nc2ccccc2SC(c2c(Cl)cccc2Cl)C1` (centres undefined): the EC50 is more than 22.4 µM and the IC50 stood at 4.57 µM.
`NC(=O)C(=CNC(=S)NCc1ccccc1)C(N)=O`: the EC50 is more than 200 µM and the IC50 was more than 200 µM.
Consider `Cc1cc(=O)[nH]c2cc(N(C)C)ccc12`, for which the EC50 was more than 67.6 µM and the half-maximal inhibitory concentration (IC50) is more than 67.6 µM.
On to `CCCCN(CCCC)CCCCNc1c(C)cnc2cc(Cl)ccc12`, for which the EC50 is more than 26.9 µM and the IC50 was 9.33 µM.
On the same counts, the results for `C/C(=N\N(C)C)c1sc(-n2nc(-c3ccccc3)cc2-c2ccccc2)nc1C` are more than 46.8 µM and more than 46.8 µM.
On the same counts, the results for `COC(=O)C(CC1CC(=O)N(CCc2c[nH]c3ccccc23)C1)C(=O)OC` (centres undefined) are more than 191 µM and more than 191 µM.
On the same counts, the results for `C=C(C)COc1ccc(C2OCC(CC)C(CCC)O2)cc1` (centres undefined) are more than 200 µM and 89.1 µM.
Turning to `CC1(O)C[C@]23CC[C@H]4[C@@H](CC=C5C[C@@H](O)CC[C@@]54C)[C@@H]2CC[C@H]13` (some centres undefined), the EC50 was more than 200 µM and the IC50 was more than 200 µM.
Regarding `O=C1C(=Cc2cccc(Br)c2)C(=O)c2ccccc21`, the EC50 was 15.5 µM and the half-maximal inhibitory concentration (IC50) turned out to be 22.9 µM.
In the case of `N=C(N)SSC(=N)N`, the EC50 is 70.8 µM and the concentration for half-maximal inhibition (IC50) was more than 100 µM.
In the case of `CCC(=O)C[P+](c1ccccc1)(c1ccccc1)c1ccccc1`, the EC50 was more than 200 µM and the IC50 came to 69.2 µM.
As for `C1=NC(N(Cc2ccccc2)Cc2ccccc2)N(Cc2ccccc2)N1` (centres undefined), the EC50 is more than 52.5 µM and the half-inhibitory concentration (IC50) was 32.4 µM.
Consider `CO[C@@H]1C=C[C@@]23c4cc5c(cc4C(=O)O[C@H]2CN(C)[C@H]3C1)OCO5`, for which the EC50 is more than 380 µM and the IC50 is more than 380 µM.
Consider `CC1=C(O[Si](C(C)C)(C(C)C)C(C)C)C2CC1(OS(=O)(=O)C(F)(F)F)[C@H]1C(=O)N(c3ccccc3)C(=O)[C@@H]21` (some centres undefined), for which the EC50 was more than 4.79 µM and the IC50 was more than 4.79 µM.
Turning to `CCN(CC)c1ccc(C(=O)c2ccccc2C(=O)O)c(O)c1`, the outcome was inactive.
For `O=C(/C=C/c1c(O)c2ccccc2[nH]c1=O)CC(=O)C(=O)Nc1cccc(O)c1`, the EC50 was more than 174 µM and the IC50 is more than 174 µM.
Consider `CC12CC3CC(C1)CC(N=[N+]=[N-])(C3)C2`, for which the EC50 was more than 70.8 µM and the IC50 is more than 70.8 µM.
For `Nc1[nH][nH]c(=O)c1N=O`, the EC50 is more than 200 µM and the half-maximal inhibitory concentration (IC50) was more than 200 µM.
Take `COc1cc(CNc2nc3ccccc3n2Cc2ccccc2)cc(CN2CCOCC2)c1O`: the EC50 was more than 200 µM and the IC50 amounted to 32.4 µM.
Turning to `CC(C)(C)C(=O)/C=C/c1ccc([N+](=O)[O-])cc1`, the outcome was inactive and the half-maximal inhibitory concentration (IC50) was determined as 10.2 µM.
Take `CC1=NNC(=NCCN(C)C)C/C1=C/c1ccccc1Cl`: the outcome was inactive.
`C=C1SC(=Nc2cccc(OC)c2)N(c2nc(Cl)nc(Cl)n2)C12CCCCC2`: the EC50 was more than 155 µM and the IC50 worked out at 52.5 µM.
For `CC(=O)c1ccc(NC(=O)/C(CC(=O)c2sc(-c3cccnc3)nc2C)=N/NC(N)=O)cc1`, in that order: more than 21.4 µM and more than 21.4 µM.
Regarding `CC(=O)Nc1c(C#N)c2n(c1C(=O)Nc1ccccc1)CCC2`, the EC50 was more than 200 µM and the IC50 is more than 200 µM.
Regarding `N#Cc1c(-c2ccc(F)cc2)c(-c2ccc(F)cc2)nn(CCO)c1=O`, the EC50 was more than 141 µM and the IC50 was 1.48 µM.
`CN(C)c1cccc2c(S(=O)(=O)NCCCCCCCCCCCCNS(=O)(=O)c3cccc4c(N(C)C)cccc34)cccc12`: the EC50 is more than 200 µM.
With `O=c1ccc(=O)n(CO)[nH]1`, the EC50 is more than 1780 µM and the 50% inhibitory concentration (IC50) is 97.7 µM.
As for `CCN(CC)c1ccc2cc(-c3nc4ccccc4s3)c(=O)oc2c1`, the EC50 was more than 20.4 µM and the IC50 was more than 20.4 µM.
Take `O=c1c2cc(S(=O)(=O)Nc3ccccc3Cl)ccc2ncn1NS(=O)(=O)c1ccc(Br)cc1`: the outcome was inactive.
For the compound `O=C(CCCC(=O)NNC(=O)Nc1ccc(N=Nc2ccccc2)cc1)NNC(=O)Nc1ccc(N=Nc2ccccc2)cc1`, the EC50 is more than 200 µM and the IC50 was more than 200 µM.
For the compound `COC(=O)/C=C(C)/C=C/c1cc(C(C)=O)c(C)o1`, the EC50 was more than 145 µM and the IC50 amounted to 102 µM.
For the compound `COc1ccc(/C=C2/N=C(N/N=C\C(O)C(O)C(O)CO)NC2=O)cc1` (centres undefined), the EC50 is more than 200 µM, the outcome was inactive and the IC50 amounted to 79.4 µM.
Consider `COc1cc(-c2oc3ccccc3c(=O)c2O)cc(OC)c1OC`, for which the EC50 is more than 200 µM and the IC50 was 79.4 µM.
In the case of `CC(C)(CCCCC(C)(C)NC(=O)Nc1ccc(Cl)c(Cl)c1)NC(=O)Nc1ccc(Cl)c(Cl)c1`, the EC50 was more than 200 µM and the half-inhibitory concentration (IC50) worked out at 8.91 µM.
On the same counts, the results for `CCOC(=O)C1=CNc2ccccc2N=C1N` are more than 200 µM and 34.7 µM.
`OC12c3ccccc3C1CCCCCC21OCCCO1` (centres undefined): the EC50 was more than 200 µM and the IC50 is more than 200 µM.
Consider `CC(O[Si](c1ccccc1)(c1ccccc1)C(C)(C)C)[C@H](NC(=O)OC(C)(C)C)C(=O)O` (some centres undefined), for which the EC50 is more than 40.7 µM and the concentration for half-maximal inhibition (IC50) is more than 40.7 µM.
Take `CCCNC(=S)/N=C/c1c(O)cc(C)oc1=O`: the EC50 was more than 200 µM and the IC50 is more than 200 µM.
